Tests used:
EZH2 = EZH2 (Homo sapiens, UniProt Q15910); assay: EZH2 assay (rPRC2, 3H SAM methyl transfer to biotinylated oligonucleosomes); type: biochemical; settings: rPRC2, 2 nM EZH2, biotinylated oligonucleosomes, 0.2 μM 3H SAM; top concentration 80 μM
Experimental: (§1) Assays were carried out by mixing rPRC2 together with biotinylated oligonucleosome substrates in the presence of the radio-labeled enzyme co-factor, S-adenosyl-L-methionine (^3H SAM) (Perkin Elmer) and monitoring the enzymatically mediated transfer of tritiated methyl groups from ^3H SAM to histone lysine residues. The amount of resulting tritiated methylhistone product was measured by first capturing the biotinylated oligonucleosomes in streptavidin (SAV) coated FlashPlates (Perkin Elmer), followed by a wash step to remove un-reacted ^3H SAM, and then counting on a TopCount NXT 384 well plate scintillation counter (Perkin Elmer). The final assay conditions for EZH2 were as follows: 50 mM Tris Buffer pH 8.5, 1 mM DTT, 69 μM Brij-35 detergent, 5.0 mM MgCl2, 0.1 mg/mL BSA, 0.2 μM ^3H SAM, 0.2 μM biotinylated oligonucleosomes, 3.6 μM H3K27me3 peptide and 2 nM EZH2.
(§2) Ten point dose response curves were generated by dispensing varying amounts of the 10 mM compound solution in 10 wells of the 384 well plate (Echo; Labcyte), pure DMSO was then used to backfill the wells to insure all wells have the same amount of DMSO. A 12.5 μL volume of the HMT enzyme, H3K27me3 peptide and oligonucleosome substrate in assay buffer was added to each well of the assay plate using a Multidrop Combi (ThermoFisher). Compounds were pre-incubated with the enzyme for 20 min, followed by initiation of the methyltransferase reaction by addition of 12.5 μL of 3H SAM in assay buffer (final volume=25 μL). The final concentrations of compounds ranged from a top default concentration of 80 μM down to 0.16 μM in ten 2-fold dilution steps. Reactions were carried out for 60 minutes and quenched with 20 μL per well of 1.96 mM SAH, 50 mM Tris PH 8.5, 200 mM EDTA. Stopped reactions were transferred to SAV coated Flashplates (Perkin Elmer), incubated for 120 min, washed with a plate washer, and then read on the TopCount NXT (1.0 min/well) to measure the amount of methylhistone product formed during the reaction.

Y641N EZH2 = Y641N EZH2 (Homo sapiens, UniProt Q15910, Y641N); assay: Y641N EZH2 assay (as the EZH2 assay, with H3K27Me2 oligonucleosomes as substrate); type: biochemical; settings: Y641N EZH2 mutant, reconstituted H3K27Me2 oligonucleosomes as substrate; top concentration 80 μM
Y641N EZH2, sequence (Q15910 whole entry Y641N): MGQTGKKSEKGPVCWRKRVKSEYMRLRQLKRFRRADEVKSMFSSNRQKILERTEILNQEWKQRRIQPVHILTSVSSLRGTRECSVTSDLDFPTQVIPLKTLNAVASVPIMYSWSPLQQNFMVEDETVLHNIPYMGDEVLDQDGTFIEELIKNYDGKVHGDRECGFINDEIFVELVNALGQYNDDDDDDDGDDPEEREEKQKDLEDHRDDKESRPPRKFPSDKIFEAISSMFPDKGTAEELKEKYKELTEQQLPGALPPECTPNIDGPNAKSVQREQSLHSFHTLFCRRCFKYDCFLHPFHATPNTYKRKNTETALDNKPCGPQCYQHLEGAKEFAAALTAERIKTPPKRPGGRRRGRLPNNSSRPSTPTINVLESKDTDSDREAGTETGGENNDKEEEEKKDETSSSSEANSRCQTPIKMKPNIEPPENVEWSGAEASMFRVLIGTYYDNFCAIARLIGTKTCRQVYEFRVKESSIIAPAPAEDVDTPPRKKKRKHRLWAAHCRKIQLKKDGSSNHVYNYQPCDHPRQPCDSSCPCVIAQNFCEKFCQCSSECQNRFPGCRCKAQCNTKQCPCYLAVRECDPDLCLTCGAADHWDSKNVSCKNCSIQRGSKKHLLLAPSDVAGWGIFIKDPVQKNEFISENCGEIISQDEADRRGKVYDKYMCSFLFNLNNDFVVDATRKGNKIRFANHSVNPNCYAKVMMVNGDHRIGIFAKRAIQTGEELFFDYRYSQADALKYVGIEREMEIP
Y641N EZH2, sequence (O75530 whole entry partner): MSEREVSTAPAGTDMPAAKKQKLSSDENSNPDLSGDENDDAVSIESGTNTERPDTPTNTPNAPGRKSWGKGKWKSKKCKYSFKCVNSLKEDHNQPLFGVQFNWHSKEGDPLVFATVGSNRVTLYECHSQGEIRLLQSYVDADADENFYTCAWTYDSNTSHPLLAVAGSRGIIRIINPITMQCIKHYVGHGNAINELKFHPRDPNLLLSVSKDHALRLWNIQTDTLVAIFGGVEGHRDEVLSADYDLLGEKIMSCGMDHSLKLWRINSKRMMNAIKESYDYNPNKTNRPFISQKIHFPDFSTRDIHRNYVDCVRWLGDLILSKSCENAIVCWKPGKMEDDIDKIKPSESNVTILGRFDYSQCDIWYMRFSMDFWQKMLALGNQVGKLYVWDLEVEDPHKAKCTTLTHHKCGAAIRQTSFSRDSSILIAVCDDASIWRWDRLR
Y641N EZH2, sequence (Q15022 whole entry partner): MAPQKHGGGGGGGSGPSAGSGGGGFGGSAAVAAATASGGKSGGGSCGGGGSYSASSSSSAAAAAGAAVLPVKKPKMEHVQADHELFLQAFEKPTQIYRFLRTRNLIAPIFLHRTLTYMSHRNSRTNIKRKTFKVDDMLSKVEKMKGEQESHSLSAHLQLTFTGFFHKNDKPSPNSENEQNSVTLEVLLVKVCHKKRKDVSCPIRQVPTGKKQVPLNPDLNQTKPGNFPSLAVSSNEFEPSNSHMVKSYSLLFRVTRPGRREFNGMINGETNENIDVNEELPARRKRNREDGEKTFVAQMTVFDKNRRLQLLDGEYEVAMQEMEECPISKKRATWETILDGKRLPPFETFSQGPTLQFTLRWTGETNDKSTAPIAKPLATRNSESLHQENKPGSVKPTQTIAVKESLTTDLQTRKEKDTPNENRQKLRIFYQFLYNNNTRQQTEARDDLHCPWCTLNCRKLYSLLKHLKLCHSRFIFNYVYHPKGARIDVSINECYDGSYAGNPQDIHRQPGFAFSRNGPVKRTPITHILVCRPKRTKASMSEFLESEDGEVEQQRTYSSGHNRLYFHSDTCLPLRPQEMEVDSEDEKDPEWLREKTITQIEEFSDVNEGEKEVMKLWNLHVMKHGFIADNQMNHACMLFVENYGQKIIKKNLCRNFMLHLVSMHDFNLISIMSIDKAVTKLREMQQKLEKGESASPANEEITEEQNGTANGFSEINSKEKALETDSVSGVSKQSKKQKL
Experimental: as §1, §2
Assay for Y641N EZH2 was performed as above using reconstituted H3K27Me2 oligonucleosomes as substrate.

EZH2, sequence (Q15910 whole entry): as the sequence (Q15910 whole entry Y641N) above, with N641Y counted along it
EZH2, sequence (O75530 whole entry partner): as the sequence (O75530 whole entry partner) above
EZH2, sequence (Q15022 whole entry partner): as the sequence (Q15022 whole entry partner) above

For `Cc1cc(C)c(CNC(=O)c2ccc(C(C)C)cc2C)c(=O)[nH]1` [Compound I-1, N-((2-hydroxy-4,6-dimethylpyridin-3-yl)methyl)-4-isopropyl-2-methylbenzamide], the IC50 (EZH2) was 1 to 10 µM and the IC50 (Y641N EZH2) was 1 to 10 µM.

`Cc1cc(C)c(CNC(=O)c2ccc(C(C)C)cc2Cl)c(=O)[nH]1` [Compound I-2, 2-chloro-N-((2-hydroxy-4,6-dimethylpyridin-3-yl)methyl)-4-isopropyl benzamide] showed an IC50 (EZH2) of under 1 µM and an IC50 (Y641N EZH2) of 1 to 10 µM.

`COC(C)(C)c1ccc(C(=O)NCc2c(C)cc(C)[nH]c2=O)cc1` [Compound I-3, N-((2-hydroxy-4,6-dimethylpyridin-3-yl)methyl)-4-(2-methoxypropan-2-yl)benzamide] showed an IC50 (EZH2) of 1 to 10 µM and an IC50 (Y641N EZH2) of over 10 µM.

Compound `COC(C)c1ccc(C(=O)NCc2c(C)cc(C)[nH]c2=O)cc1` (stereo not drawn) [Compound I-4, N-((2-hydroxy-4,6-dimethylpyridin-3-yl)methyl)-4-(1-methoxyethyl)benzamide] has an IC50 (EZH2) of under 1 µM and an IC50 (Y641N EZH2) of 1 to 10 µM.

For `Cc1cc(C)c(CNC(=O)c2ccc(C(C)OC(C)C)cc2)c(=O)[nH]1` (stereo not drawn) [Compound I-5, N-((2-hydroxy-4,6-dimethylpyridin-3-yl)methyl)-4-(1-isopropoxyethyl)benzamide], the IC50 (EZH2) was under 1 µM and the IC50 (Y641N EZH2) was 1 to 10 µM.

`Cc1cc(C)c(CNC(=O)c2ccc(COC(C)C)cc2)c(=O)[nH]1` [Compound I-6] was tested, and the IC50 (EZH2) was over 10 µM and the IC50 (Y641N EZH2) was over 10 µM.

Work on `CCOC(C)c1ccc(C(=O)NCc2c(C)cc(C)[nH]c2=O)cc1` (stereo not drawn) [Compound I-7, 4-(1-ethoxyethyl)-N-((2-hydroxy-4,6-dimethylpyridin-3-yl)methyl)benzamide] yielded an IC50 (EZH2) of under 1 µM and an IC50 (Y641N EZH2) of 1 to 10 µM.

`Cc1cc(C)c(CNC(=O)c2ccc(C(C)OCC(C)C)cc2)c(=O)[nH]1` (stereo not drawn) [Compound I-8, N-((2-hydroxy-4,6-dimethylpyridin-3-yl)methyl)-4-(1-isobutoxyethyl)benzamide] showed an IC50 (EZH2) of under 1 µM and an IC50 (Y641N EZH2) of 1 to 10 µM.

In the case of `Cc1cc(C)c(CNC(=O)c2ccc(C(C)C(C)C)cc2)c(=O)[nH]1` (stereo not drawn) [Compound I-9, N-((2-hydroxy-4,6-dimethylpyridin-3-yl)methyl)-4-(3-methylbutan-2-yl)benzamide], the IC50 (EZH2) is reported as under 1 µM and the IC50 (Y641N EZH2) is reported as 1 to 10 µM.

With `CCCC(C)c1ccc(C(=O)NCc2c(C)cc(C)[nH]c2=O)cc1` (stereo not drawn) [Compound I-10, N-((2-hydroxy-4,6-dimethylpyridin-3-yl)methyl)-4-(pentan-2-yl)benzamide] the IC50 (EZH2) was under 1 µM and the IC50 (Y641N EZH2) was 1 to 10 µM.

`Cc1cc(C)c(CNC(=O)c2ccc(C(C)C)c(Oc3ccccc3)c2)c(=O)[nH]1` [Compound I-11, N-((2-hydroxy-4,6-dimethylpyridin-3-yl)methyl)-4-isopropyl-3-phenoxy benzamide] gave an IC50 (EZH2) of 1 to 10 µM and an IC50 (Y641N EZH2) of over 80 µM.

`Cc1cc(C)c(CNC(=O)c2ccc3c(c2)OCC3C)c(=O)[nH]1` (stereo not drawn) [Compound I-12] was tested, and the IC50 (EZH2) was 1 to 10 µM and the IC50 (Y641N EZH2) was over 80 µM.

Compound `Cc1cc(C)c(CNC(=O)c2ccn(C(C)C)c(=O)c2)c(=O)[nH]1` [Compound I-14, N-((2-hydroxy-4,6-dimethylpyridin-3-yl)methyl)-1-isopropyl-2-oxo-1,2-dihydropyridine-4-carboxamide] has an IC50 (EZH2) of 1 to 10 µM and an IC50 (Y641N EZH2) of over 80 µM.

For `Cc1cc(C)c(CNC(=O)c2ccc(C(C)(C)O)cc2)c(=O)[nH]1` [Compound I-20, N-((2-hydroxy-4,6-dimethylpyridin-3-yl)methyl)-4-(2-hydroxypropan-2-yl)benzamide], the IC50 (EZH2) was over 10 µM and the IC50 (Y641N EZH2) was over 80 µM.

In the case of `CC(=O)NC(C)c1ccc(C(=O)NCc2c(C)cc(C)[nH]c2=O)cc1` (stereo not drawn) [Compound I-29, 4-(1-acetamidoethyl)-N-((2-hydroxy-4,6-dimethylpyridin-3-yl)methyl)benzamide], the IC50 (EZH2) is reported as over 80 µM and the IC50 (Y641N EZH2) is reported as over 80 µM.

Reference: patent US9409865B2, “Modulators of methyl modifying enzymes, compositions and uses thereof” (Constellation Pharmaceuticals, Inc., priority 2011, dated 2016)
